Test results taken from the NIST ThermoML archive (doi:10.1016/j.jct.2012.08.030).
Numbers after ± are expanded uncertainties.

Tests used:
[1] = xn = mol fraction of the nth substance listed; settings: 101.3 kPa, Liquid; for speed of sound: Sing-around technique in a fixed-path interferometer; for mass density: Vibrating tube method
[2] = refractive index (Na D-line) (dimensionless); xn = mol fraction of the nth substance listed; settings: 101.3 kPa, Liquid, Standard Abbe refractometry

CCCCn1cc[n+](C)c1.COS(=O)(=O)[O-] [1-butyl-3-methylimidazolium methyl sulfate] + CCCO
Settings | mass density, [1] [kg/m3] | refractive index, [2] | speed of sound, [1] [m/s]
298.15 K, x1 = 0.0482 | 852.432 ± 0.25 | 1.39591 ± 0.00033 | 1242.8 ± 0.89
298.15 K, x1 = 0.0965 | 896.455 ± 0.22 | 1.40632 ± 0.00034 | 1276 ± 0.99
298.15 K, x1 = 0.1937 | 967.583 ± 0.26 | 1.42298 ± 0.00037 | 1338.1 ± 1.2
298.15 K, x1 = 0.2929 | 1023.11 ± 0.37 | 1.43588 ± 0.0004 | 1394.2 ± 1.4
298.15 K, x1 = 0.3903 | 1066.53 ± 0.56 | 1.44583 ± 0.00043 | 1443.9 ± 1.6
298.15 K, x1 = 0.4958 | 1104.3 ± 0.81 | 1.45448 ± 0.00047 | 1491.7 ± 1.9
298.15 K, x1 = 0.59 | 1132.04 ± 1.1 | 1.46078 ± 0.0005 | 1529.8 ± 2.1
298.15 K, x1 = 0.6907 | 1156.89 ± 1.4 | 1.46636 ± 0.00054 | 1566.3 ± 2.4
298.15 K, x1 = 0.7981 | 1179.34 ± 1.9 | 1.47134 ± 0.00059 | 1601.1 ± 2.6
298.15 K, x1 = 0.8932 | 1196.47 ± 2.3 | 1.47515 ± 0.00063 | 1629 ± 2.8
298.15 K, x1 = 0.951 | 1205.24 ± 2.6 | 1.4776 ± 0.00065 | 1643.1 ± 3
298.15 K, x1 = 1 | 1212.06 ± 2.8 | 1.47824 ± 0.00068 | 1654.6 ± 3.1
303.15 K, x1 = 0.0482 | 848.503 ± 0.25 | 1.39407 ± 0.00033 | 1227 ± 0.89
303.15 K, x1 = 0.0965 | 892.596 ± 0.22 | 1.40459 ± 0.00034 | –
303.15 K, x1 = 0.1937 | 963.817 ± 0.26 | 1.42138 ± 0.00037 | 1323.8 ± 1.2
303.15 K, x1 = 0.2929 | 1019.43 ± 0.37 | 1.43433 ± 0.0004 | 1380.5 ± 1.4
303.15 K, x1 = 0.3903 | 1062.93 ± 0.55 | 1.44433 ± 0.00043 | 1430.6 ± 1.6
303.15 K, x1 = 0.4958 | 1100.77 ± 0.81 | 1.45302 ± 0.00047 | 1478.8 ± 1.9
303.15 K, x1 = 0.59 | 1128.56 ± 1.1 | 1.45937 ± 0.0005 | 1517.2 ± 2.1
303.15 K, x1 = 0.6907 | 1153.44 ± 1.4 | 1.46499 ± 0.00054 | 1553.9 ± 2.4
303.15 K, x1 = 0.7981 | 1175.92 ± 1.9 | 1.46997 ± 0.00059 | 1588.9 ± 2.6
303.15 K, x1 = 0.8932 | 1192.93 ± 2.3 | 1.47378 ± 0.00063 | 1616.9 ± 2.8
303.15 K, x1 = 0.951 | 1201.87 ± 2.6 | 1.47628 ± 0.00065 | 1630.9 ± 3
303.15 K, x1 = 1 | 1208.7 ± 2.8 | 1.47704 ± 0.00068 | 1642.2 ± 3.1
308.15 K, x1 = 0.0482 | 844.545 ± 0.25 | 1.39212 ± 0.00033 | 1211.1 ± 0.88
308.15 K, x1 = 0.0965 | 888.716 ± 0.22 | 1.40276 ± 0.00034 | 1245.5 ± 0.98
308.15 K, x1 = 0.1937 | 960.044 ± 0.26 | 1.41966 ± 0.00037 | 1309.3 ± 1.2
308.15 K, x1 = 0.2929 | 1015.75 ± 0.36 | 1.43273 ± 0.0004 | 1366.6 ± 1.4
308.15 K, x1 = 0.3903 | 1059.34 ± 0.55 | 1.4428 ± 0.00043 | 1417.3 ± 1.6
308.15 K, x1 = 0.4958 | 1097.25 ± 0.8 | 1.45154 ± 0.00047 | 1465.8 ± 1.9
308.15 K, x1 = 0.59 | 1125.08 ± 1.1 | 1.45793 ± 0.0005 | 1504.5 ± 2.1
308.15 K, x1 = 0.6907 | 1150 ± 1.4 | 1.46358 ± 0.00054 | 1541.4 ± 2.4
308.15 K, x1 = 0.7981 | 1172.52 ± 1.8 | 1.46856 ± 0.00059 | 1576.5 ± 2.6
308.15 K, x1 = 0.8932 | 1189.33 ± 2.3 | 1.47238 ± 0.00063 | 1604.7 ± 2.8
308.15 K, x1 = 0.951 | 1198.5 ± 2.6 | 1.47491 ± 0.00065 | 1618.7 ± 3
308.15 K, x1 = 1 | 1205.35 ± 2.8 | 1.47577 ± 0.00068 | 1630 ± 3.1
313.15 K, x1 = 0.0482 | 840.564 ± 0.25 | 1.39019 ± 0.00033 | 1195.2 ± 0.88
313.15 K, x1 = 0.0965 | 884.815 ± 0.23 | 1.4009 ± 0.00034 | 1230.2 ± 0.98
313.15 K, x1 = 0.1937 | 956.26 ± 0.26 | 1.41794 ± 0.00037 | 1294.9 ± 1.2
313.15 K, x1 = 0.2929 | 1012.08 ± 0.36 | 1.43111 ± 0.0004 | 1352.8 ± 1.4
313.15 K, x1 = 0.3903 | 1055.75 ± 0.54 | 1.44126 ± 0.00043 | 1404 ± 1.6
313.15 K, x1 = 0.4958 | 1093.74 ± 0.8 | 1.45008 ± 0.00047 | 1453 ± 1.9
313.15 K, x1 = 0.59 | 1121.62 ± 1.1 | 1.45649 ± 0.0005 | 1492 ± 2.1
313.15 K, x1 = 0.6907 | 1146.58 ± 1.4 | 1.46215 ± 0.00054 | 1529.1 ± 2.4
313.15 K, x1 = 0.7981 | 1169.13 ± 1.8 | 1.46715 ± 0.00059 | 1564.4 ± 2.6
313.15 K, x1 = 0.8932 | 1185.78 ± 2.3 | 1.4709 ± 0.00063 | 1592.5 ± 2.8
313.15 K, x1 = 0.951 | 1195.15 ± 2.5 | 1.47354 ± 0.00065 | 1606.6 ± 3
313.15 K, x1 = 1 | 1202.01 ± 2.8 | 1.47443 ± 0.00068 | 1617.9 ± 3.1
